pIC50: −log10 of the molar value.
Experiments:
[1] = target: T1, IP receptor (Homo sapiens, UniProt P43119); test: IP receptor binding/cAMP in HEL cells ([3H]-iloprost binding, Assay 1; iloprost-induced cAMP production, Assay 2); settings: compounds of about 40 to 90% purity, read-out: In vitro activity grade (IC50 class)
T1 construct: one million cells in 160 μl aliquot of cell suspension were put in a well of 96 well plate; host or cells: HEL 92.1.7 human erythroleukemia cells (whole cells)
Experimental: [Measurement of the [^3H]-iloprost Binding to HEL Cells] (Assay 1)
A human erythloleukemia cell line, HEL 92.1.7, was purchased from American Type Culture Correction and maintained in RPMI-1640 medium (Gibco BRL) supplemented with 10% fetal calf serum (FCS), 2 mM glutamine, 4.5 g/L glucose, 10 mM Hepes, 1 mM sodium pyruvate, 100 U/ml penicillin, and 100 μg/ml streptomycin in a humidified 5% CO2 atmosphere at 37° C. Cells were collected with centrifugation and washed with binding assay buffer (BAB: 50 mM Tris-HCl, 5 mM MgCl2 (pH 7.5)). Cells were suspended at the density of 6.25×10^6 cells/ml in BAB, and one million cells in 160 μl aliquot of cell suspension were put in a well of 96 well plate (Falcon). Then, 20 μl of compound solution, 100 μM of iloprost (for non-specific binding), or buffer alone (total binding), diluted with 1% DMSO in BAB was added. Finally, another 20 μl containing [^3H]-iloprost (0.02 μCi, 0.5-1 pmol) in BAB was added and incubated at room temperature for 30 min with a gentle shaking. Cell suspension was then transferred to a well of MultiScreen plate with GF/C glass filters (Millipore) to harvest cells. Cells were washed twice with 200 μl of ice-cold BAB and the plate was kept at 55° C. for 30 min to dry filters. The filter in the well was punched out to a counting tube and 2 ml of Ultima Gold XR (Packard) was added. [^3H]-radio activity in the filter was measured by a liquid scintillation counter (Beckman, USA).
[Iloprost-Induced cAMP Production Assay in HEL Cells] (Assay 2)
HEL cells were collected with centrifugation and washed with cAMP assay buffer (CAB: Hank's balanced salt solution, 17 mM Hepes, 0.1% bovine serum albumin, 1 mM IBMX, 0.4% DMSO, and 1 mM L-ascorbic acid sodium salt (pH 7.4)). Cells were suspended at the density of 2.5×10^5 cells/ml in CAB, and twenty thousand cells in 80 μl aliquot of cell suspension were put in a well of 96 well plate (Falcon). Then, 10 μl of compound solution diluted with 1% DMSO in CAB or buffer alone was added. The plate was incubated at 37° C. for 30 min. Then, another 10 μl containing 100 nM iloprost in CAB or buffer alone was added and further incubated at 37° C. for 30 min. cAMP content in the well was measured by a cAMP ELISA kit (Applied Biosystems, USA).
The data corresponds to the compounds as yielded by solid phase synthesis and thus to levels of purity of about 40 to 90%. For practical reasons, the compounds are grouped in three classes of activity as follows: IC50=A<0.1 μM≦B<1 μM≦C

T1 sequence (P43119 whole entry): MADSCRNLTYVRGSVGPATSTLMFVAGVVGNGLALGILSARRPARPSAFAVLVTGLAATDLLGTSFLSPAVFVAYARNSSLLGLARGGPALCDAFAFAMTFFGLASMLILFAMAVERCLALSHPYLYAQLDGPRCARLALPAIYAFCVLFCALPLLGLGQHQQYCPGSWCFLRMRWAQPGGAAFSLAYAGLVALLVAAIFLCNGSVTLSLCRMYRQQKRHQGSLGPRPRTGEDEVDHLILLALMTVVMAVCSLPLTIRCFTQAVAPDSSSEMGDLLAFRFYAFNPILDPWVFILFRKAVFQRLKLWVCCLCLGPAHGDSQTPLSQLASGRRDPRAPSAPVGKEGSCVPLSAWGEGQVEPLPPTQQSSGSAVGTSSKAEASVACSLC

| Compound | pIC50 [1] | melting point |
| --- | --- | --- |
| O=C(O)C(Cc1ccc(Cl)cc1)Nc1cc(-c2ccc(OCC3CC3)cc2)ncn1 (stereo not drawn) [Example 1-40] | > 7.00 | 166 to 169 °C |
| CCCCC(Nc1cc(-c2ccc(OCC3CC3)cc2)ncn1)C(=O)O (stereo not drawn) [Example 1-41] | 6.00 to 7.00 | 100 to 104 °C |
| O=C(O)C(Cc1ccc(F)cc1)Nc1cc(-c2ccc(OCC3CC3)cc2)ncn1 (stereo not drawn) [Example 1-42] | > 7.00 | 126 to 128 °C |
| O=C(O)C(Cc1ccccc1)Nc1cc(-c2cccc(OCc3ccccc3)c2)ncn1 (stereo not drawn) [Example 1-43] | < 6.00 | 150 to 152 °C |
| O=C(O)C(Cc1ccccn1)Nc1cc(-c2ccc(OCC3CC3)cc2)ncn1 (stereo not drawn) [Example 1-44] | 6.00 to 7.00 | 105 to 107 °C |
| O=C(O)C(Cc1ccccn1)Nc1ncnc(-c2ccc(OCc3ccccc3)cc2)c1F (stereo not drawn) [Example 1-45] | > 7.00 | 177 to 178 °C |
| O=C(O)C(Cc1ccccn1)Nc1cc(-c2ccc(OCc3ccccc3)c(F)c2)ncn1 (stereo not drawn) [Example 1-46] | > 7.00 | 107 °C |
| O=C(O)C(Cc1ccccc1)Nc1cc(-c2ccc(OCc3ccccc3)c(F)c2)ncn1 (stereo not drawn) [Example 1-47] | > 7.00 | 117 to 120 °C |
| O=C(O)C(Cc1cccnc1)Nc1cc(-c2ccc(OCc3ccccc3)cc2)ncn1 (stereo not drawn) [Example 1-48] | > 7.00 | 188 to 192 °C |
| O=C(O)[C@H](Cc1ccccc1)Nc1cc(-c2ccc(OCC3CC3)cc2)ncn1 [Example 1-49] | < 6.00 | 180 to 185 °C |
| O=C(O)[C@H](Cc1ccccc1)Nc1cc(-c2ccc(OCc3ccccc3)cc2)ncn1 [Example 1-50] | 6.00 to 7.00 | 150 to 155 °C |
| CCCCC(Nc1cc(-c2ccc(-c3ccccc3)cc2)ncn1)C(=O)O (stereo not drawn) [Example 1-56] | 6.00 to 7.00 | 110 to 120 °C |
| O=C(O)C(Cc1ccccc1)Nc1cc(-c2ccc(OCc3ccccc3)cc2F)ncn1 (stereo not drawn) [Example 1-57] | 6.00 to 7.00 | 133 to 136 °C |
| CN(c1cc(-c2ccc(OCc3ccccc3)cc2)ncn1)C(Cc1ccccc1)C(=O)O (stereo not drawn) [Example 1-58] | > 7.00 | 112 to 115 °C |
| O=C(O)[C@H](Cc1ccccc1)Nc1cc(-c2ccc(OCC3CC3)cc2)ncn1 [Example 2-1, N-{6-[4-(Cyclopropylmethoxy)phenyl]pyrimidin-4-yl}phenylalanine] | > 7.00 | 216 to 218 °C |
| COc1cc(COc2ccc(-c3cc(NC(Cc4ccccc4)C(=O)O)ncn3)cc2)cc(OC)c1 (stereo not drawn) [Example 2-2] | > 7.00 | 90 to 93 °C |
| O=C(O)C(Cc1ccccc1)Nc1cc(-c2ccc(OCc3cccc(F)c3)cc2)ncn1 (stereo not drawn) [Example 2-3] | > 7.00 | 175 to 177 °C |
| COc1cccc(COc2ccc(-c3cc(NC(Cc4ccccc4)C(=O)O)ncn3)cc2)c1 (stereo not drawn) [Example 2-4] | > 7.00 | 90 to 93 °C |
| O=C(O)C(Cc1ccccc1)Nc1cc(-c2ccc(O)cc2)ncn1 (stereo not drawn) [Example 2-5] | < 6.00 | 223 to 227 °C |
| O=C(O)C(Cc1ccccc1)Nc1cc(-c2ccc(OCc3ccccc3F)cc2)ncn1 (stereo not drawn) [Example 2-6] | > 7.00 | 220 to 223 °C (dec.) |
| O=C(O)C(Cc1ccccc1)Nc1cc(-c2ccc(OCc3ccc(F)cc3)cc2)ncn1 (stereo not drawn) [Example 2-7] | > 7.00 | 228 to 230 °C (dec.) |
| O=C(O)C(Cc1ccccc1)Nc1cc(-c2ccc(OCC3CCCCC3)cc2)ncn1 (stereo not drawn) [Example 2-8] | > 7.00 | 118 to 120 °C |
| O=C(O)C(Cc1ccccc1)Nc1cc(-c2ccc(OCCn3cccc3)cc2)ncn1 (stereo not drawn) [Example 2-9] | > 7.00 | 209 to 211 °C |
| CCCCOc1ccc(-c2cc(NC(Cc3ccccc3)C(=O)O)ncn2)cc1 (stereo not drawn) [Example 2-10] | > 7.00 | 205 to 208 °C |

Reference: patent US20060089371A1, “Phenyl or heteroaryl amino alkane derivatives as ip receptor antagonist” (Bayer HealthCare AG, priority 2002, published 2006)
